# Data reported in patent US11014908B2, “Chemical compounds” (Pfizer Inc., priority 2018, dated 2021).
# Assays:
# Hb in human whole blood = molecular target: T1, Hb in human whole blood (Homo sapiens, UniProt P68871+P69905); test: Whole blood oxygen affinity assay (Hemox analyzer), human blood; conditions: 1 mM compound, 1 hour at 25 C, relative to DMSO
# T1 construct: measured in human, dog, and mouse whole blood; from tissue; host or cells: human whole blood
# From the text: (§1) Whole Blood Oxygen Affinity Assay
# (§2) Oxygen affinity is a marker of the ability of Hb to bind and release oxygen in solution. It can be determined in whole blood by measuring the percentage of oxygenated and deoxygenated Hb present at a given oxygen concentration. Oxygen affinity is expressed as the p50, the partial pressure of oxygen at which 50% of the Hb in solution has oxygen bound, or the p20, the partial pressure of oxygen at which 20% of the Hb in solution has oxygen bound.
# (§3) To determine the effects of compounds of the invention on oxygen affinity the p50 and p20 were measured in human, dog, and mouse whole blood using a Hemeox Analyzer (TCS Scientific). The blood was spiked with a compound of the invention to a concentration of 1 mM and incubated for 1 hour at 25 C with constant rotation. A concentration of 1 mM of compound was selected to approximate 20% hemoglobin occupancy in whole blood. Controls with the same concentration of DMSO, but no compound were incubated in the same way at the same time. Following incubation, samples were immediately assayed for oxygen affinity using the Hemox analyzer. Fifty μL of blood sample was diluted into 5 mL of hemox buffer (TCS Scientific), which had been pre-incubated to 37 C. Following dilution, samples were loaded into the analysis chamber, and fully oxygenated using compressed air. Once samples had reached an pO2 of >150 torr, the measurement was initiated by switching to N2, and the percent oxyhemoglobin as a function of partial pressure was recorded. The p20 and p50 of each sample were recorded from the instrument readout. Data are reported as the percent (%) change relative to DMSO according to the following calculations: […]
# [1] = molecular target: T2, purified sickle cell hemoglobin (HbS) (Homo sapiens, UniProt P68871+P69905, E7V); test: Binding affinity to purified HbS by Surface Plasmon Resonance (SPR); conditions: crosslinked biotinylated HbS, 1:1 binding model
# T2 construct: HbS was obtained from the blood of homozygous S/S patients; from tissue; host or cells: red blood cells of homozygous S/S patients
# Summary of the method: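 Patient-derived HbS, purified and crosslinked between beta subunits (Lys82-Lys82), biotinylated and captured on streptavidin sensor at 4000–5000 RU. Running buffer 100 mM potassium phosphate pH 7.5, 1 mM EDTA, 0.1 mg/mL BSA, 1% DMSO; 2 min association, ≥5 min dissociation, ≥4 concentrations; Kd from 1:1 model fit.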
# Townes SCD mice = test: Chronic dosing study (BID, 15 days) in Townes SCD mice; format: in vivo, mouse; conditions: 200 mg/kg BID for 15 days, Townes SCD mice, vs vehicle; for sVCAM1, Change (decrease): ELISA
# Description: Following 15 days of dosing, blood samples were collected from all animals to run in the Hemeox analyzer to generate oxygen affinity curves, complete blood analysis was performed using Idexx hematology Analyzer, and cell sickling assessed as described before. Soluble Vascular Adhesion Molecule 1 levels (sVCAM1) were assessed by Enzyme linked immunosorbent assay (ELISA) from R&D systems. Results are presented below in Tables 7, 8 and 9.
# Hb in dog whole blood = molecular target: T3, Hb in dog whole blood (Canis lupus familiaris, UniProt P60524+P60529); test: Whole blood oxygen affinity assay (Hemox analyzer), dog blood; conditions: 1 mM compound, 1 hour at 25 C, relative to DMSO
# T3 construct: measured in human, dog, and mouse whole blood; from tissue; host or cells: dog whole blood
# From the text: as §1, §2
# as §3, with “Fifty μL of blood sample was diluted into 5 mL of hemox buffer (TCS Scientific), which had been pre-incubated to 37 C. Following dilution, samples were loaded into the analysis chamber, and fully oxygenated using compressed air.” left out, “readout.” for “readout. Data are reported as the percent (%) change relative to DMSO according to the following calculations:”
# Hb in mouse whole blood = test: Whole blood oxygen affinity assay (Hemox analyzer), mouse blood; conditions: 1 mM compound, 1 hour at 25 C, relative to DMSO
# From the text: as §1, §2
# as §3, with “Fifty μL of blood sample was diluted into 5 mL of hemox buffer (TCS Scientific), which had been pre-incubated to 37 C. Following dilution, samples were loaded into the analysis chamber, and fully oxygenated using compressed air.” left out, “readout.” for “readout. Data are reported as the percent (%) change relative to DMSO according to the following calculations:”
SMILES,Reduction in p20 (%) Human (Hb in human whole blood) [%],Reduction in p50 (%) Human (Hb in human whole blood) [%],Kd [1] [nM],"sVCAM1, Change (decrease) (Townes SCD mice) [% decrease]","Hb, Change (increase) (Townes SCD mice) [% increase]","Hematocrit, Change (increase) (Townes SCD mice) [% increase]","RBC sickling, Change (decrease) (Townes SCD mice) [% decrease]","RBCs, Change (increase) (Townes SCD mice) [% increase]","Reticulocytes, Change (decrease) (Townes SCD mice) [% decrease]","p20, Change (decrease) (Townes SCD mice) [% decrease]","p50, Change (decrease) (Townes SCD mice) [% decrease]",Reduction in p20 (%) Dog (Hb in dog whole blood) [%],Reduction in p50 (%) Dog (Hb in dog whole blood) [%],Reduction in p20 (%) Mouse (Hb in mouse whole blood) [%],Reduction in p50 (%) Mouse (Hb in mouse whole blood) [%]
"C[C@H](Oc1cc2cc(F)cc(F)c2nc1N)c1cc(C(=O)O)ccc1-n1cccn1 [Example 21, 3-{(1S)-1-[(2-amino-6,8-difluoroquinolin-3-yl)oxy]ethyl}-4-(1H-pyrazol-1-yl)benzoic Acid]",25 ± 9,14 ± 10,37,6.57 ± 3.75,43.7 ± 9.83,29.1 ± 11.2,30.8 ± 14.5,44.6 ± 9.04,32.7 ± 9.37,76.1 ± 13.9,26.2 ± 9.7,–,–,–,–
"C[C@H](Oc1cc2cc(F)ccc2nc1N)c1nc(O)ccc1-n1cccn1 [Example 58, 6-{(1S)-1-[(2-amino-6-fluoroquinolin-3-yl)oxy]ethyl}-5-(1H-pyrazol-1-yl)pyridin-2-ol]",24 ± 19,12 ± 9,34,9.98 ± 7.1,42.4 ± 4.2,30.9 ± 0.7,37.8 ± 9.0,39.2 ± 9.3,54.7 ± 2.4,84.4 ± 2.6,53.7 ± 21.2,10 ± 6,6 ± 6,11 ± 2,5 ± 3
